Measurements as given in PubChem BioAssay AID2060912 (Molecular Pharmacology Branch, DTP, NCI, 2025).

Test system: HUVEC/MSC spheroids viability
Experiment: Human HUVEC/MSC cell line growth inhibition [KRAS2];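 for viability, T/C: percent of DMSO vehicle control luminescence so 100% = untreated viability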
Conditions: for viability, T/C: stronger effect = lower value
Procedure, shortened: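 Concentration ranges start near each agent's clinical Cmax, or at 10 microM if none is established, and fall by half-log increments. These ranges are tested as single agents and combinations on endothelial/mesenchymal stem cell spheroids lacking tumour cells.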

[1] = curve of first compound, second compound 0.0316 µM
[2] = curve of first compound, second compound 0.1 µM
[3] = curve of first compound, second compound 0.316 µM
[4] = curve of first compound, second compound 1 µM
[5] = curve of first compound, second compound 3.16 µM
[6] = curve of first compound, second compound 10 µM
[7] = second compound 0.0316 µM, first compound 0.0316 µM
[8] = second compound 0.0316 µM, first compound 0.1 µM
[9] = second compound 0.0316 µM, first compound 0.316 µM
[10] = second compound 0.0316 µM, first compound 1 µM
[11] = second compound 0.0316 µM, first compound 3.16 µM
[12] = second compound 0.0316 µM, first compound 10 µM
[13] = second compound 0.1 µM, first compound 0.0316 µM
[14] = second compound 0.1 µM, first compound 0.1 µM
[15] = second compound 0.1 µM, first compound 0.316 µM
[16] = second compound 0.1 µM, first compound 1 µM
[17] = second compound 0.1 µM, first compound 3.16 µM
[18] = second compound 0.1 µM, first compound 10 µM
[19] = second compound 0.316 µM, first compound 0.0316 µM
[20] = second compound 0.316 µM, first compound 0.1 µM
[21] = second compound 0.316 µM, first compound 0.316 µM
[22] = second compound 0.316 µM, first compound 1 µM
[23] = second compound 0.316 µM, first compound 3.16 µM
[24] = second compound 0.316 µM, first compound 10 µM
[25] = second compound 1 µM, first compound 0.0316 µM
[26] = second compound 1 µM, first compound 0.1 µM
[27] = second compound 1 µM, first compound 0.316 µM
[28] = second compound 1 µM, first compound 1 µM
[29] = second compound 1 µM, first compound 3.16 µM
[30] = second compound 1 µM, first compound 10 µM
[31] = second compound 3.16 µM, first compound 0.0316 µM
[32] = second compound 3.16 µM, first compound 0.1 µM
[33] = second compound 3.16 µM, first compound 0.316 µM
[34] = second compound 3.16 µM, first compound 1 µM
[35] = second compound 3.16 µM, first compound 3.16 µM
[36] = second compound 3.16 µM, first compound 10 µM
[37] = second compound 10 µM, first compound 0.0316 µM
[38] = second compound 10 µM, first compound 0.1 µM
[39] = second compound 10 µM, first compound 0.316 µM
[40] = second compound 10 µM, first compound 1 µM
[41] = second compound 10 µM, first compound 3.16 µM
[42] = second compound 10 µM, first compound 10 µM

COc1cc2nccc(Oc3ccc(NC(=O)C4(C(=O)Nc5ccc(F)cc5)CC4)cc3)c2cc1OC
viability, T/C (compound 0.0316 µM): 76.8% [middle of 5 runs] | viability, T/C (compound 0.1 µM): 79% [middle of 5 runs] | viability, T/C (compound 0.316 µM): 70.8% [middle of 5 runs] | viability, T/C (compound 1 µM): 71.4% [middle of 5 runs] | viability, T/C (compound 10 µM): 36% [middle of 5 runs] | IC50 (curve of compound): 6.87 µM [middle of 5 runs]

COc1cc(Nc2ncc3c(n2)-c2ccc(Cl)cc2C(c2c(F)cccc2OC)=NC3)ccc1C(=O)O + COc1cc2nc(C)nc(NC(C)c3cc(N)cc(C(F)(F)F)c3)c2cc1OC1CCOC1
IC50 [1]: > 10 µM | IC50 [2]: > 10 µM | IC50 [3]: 9.25 µM | IC50 [4]: > 10 µM | IC50 [5]: 9.65 µM | IC50 [6]: 8.57 µM | viability, T/C [7]: 79.5% | viability, T/C [8]: 94.3% | viability, T/C [9]: 109% | viability, T/C [10]: 82.5% | viability, T/C [11]: 111% | viability, T/C [12]: 61.6% | viability, T/C [13]: 95.5% | viability, T/C [14]: 89.7% | viability, T/C [15]: 105% | viability, T/C [16]: 85.8% | viability, T/C [17]: 97% | viability, T/C [18]: 58.8% | viability, T/C [19]: 87.8% | viability, T/C [20]: 97.1% | viability, T/C [21]: 92.5% | viability, T/C [22]: 105% | viability, T/C [23]: 104% | viability, T/C [24]: 46.5% | viability, T/C [25]: 86.9% | viability, T/C [26]: 89.5% | viability, T/C [27]: 96.8% | viability, T/C [28]: 106% | viability, T/C [29]: 107% | viability, T/C [30]: 52.7% | viability, T/C [31]: 77.4% | viability, T/C [32]: 94.8% | viability, T/C [33]: 102% | viability, T/C [34]: 77% | viability, T/C [35]: 102% | viability, T/C [36]: 48.7% | viability, T/C [37]: 62.5% | viability, T/C [38]: 85.8% | viability, T/C [39]: 72.5% | viability, T/C [40]: 84.9% | viability, T/C [41]: 74.9% | viability, T/C [42]: 46.1%

CCN1CCN(Cc2ccc(Nc3ncc(F)c(-c4cc(F)c5nc(C)n(C(C)C)c5c4)n3)nc2)CC1 + COc1cc2nc(C)nc(NC(C)c3cc(N)cc(C(F)(F)F)c3)c2cc1OC1CCOC1
IC50 [1]: > 1 µM | IC50 [2]: > 1 µM | IC50 [3]: > 1 µM | IC50 [4]: > 1 µM | IC50 [5]: > 1 µM | IC50 [6]: > 1 µM | viability, T/C (second compound 0.0316 µM, first compound 0.00316 µM): 93.3% | viability, T/C (second compound 0.0316 µM, first compound 0.01 µM): 77% | viability, T/C [7]: 87.6% | viability, T/C [8]: 80.3% | viability, T/C [9]: 93.4% | viability, T/C [10]: 122% | viability, T/C (second compound 0.1 µM, first compound 0.00316 µM): 77.7% | viability, T/C (second compound 0.1 µM, first compound 0.01 µM): 90.9% | viability, T/C [13]: 83.1% | viability, T/C [14]: 73.7% | viability, T/C [15]: 105% | viability, T/C [16]: 106% | viability, T/C (second compound 0.316 µM, first compound 0.00316 µM): 72.5% | viability, T/C (second compound 0.316 µM, first compound 0.01 µM): 92.5% | viability, T/C [19]: 79.4% | viability, T/C [20]: 79% | viability, T/C [21]: 96.1% | viability, T/C [22]: 121% | viability, T/C (second compound 1 µM, first compound 0.00316 µM): 76.1% | viability, T/C (second compound 1 µM, first compound 0.01 µM): 68.8% | viability, T/C [25]: 71.2% | viability, T/C [26]: 77.2% | viability, T/C [27]: 95.7% | viability, T/C [28]: 117% | viability, T/C (second compound 3.16 µM, first compound 0.00316 µM): 65.8% | viability, T/C (second compound 3.16 µM, first compound 0.01 µM): 74.4% | viability, T/C [31]: 65.4% | viability, T/C [32]: 69.9% | viability, T/C [33]: 77% | viability, T/C [34]: 103% | viability, T/C (second compound 10 µM, first compound 0.00316 µM): 63.7% | viability, T/C (second compound 10 µM, first compound 0.01 µM): 76.7% | viability, T/C [37]: 65.7% | viability, T/C [38]: 56.4% | viability, T/C [39]: 66.5% | viability, T/C [40]: 75%

CC1(C)CCC(CN2CCN(c3ccc(C(=O)NS(=O)(=O)c4ccc(NCC5CCOCC5)c([N+](=O)[O-])c4)c(Oc4cnc5[nH]ccc5c4)c3)CC2)=C(c2ccc(Cl)cc2)C1 + C=CC(=O)N1CCN(c2nc(=O)n(-c3c(C)ccnc3C(C)C)c3nc(-c4c(O)cccc4F)c(F)cc23)C(C)C1
IC50 [1]: 4.57 µM | IC50 [2]: 4.7 µM | IC50 [3]: 5.75 µM | IC50 [4]: 5.28 µM | IC50 [5]: 5.97 µM | IC50 [6]: 5.96 µM | viability, T/C [7]: 105% | viability, T/C [8]: 92% | viability, T/C [9]: 95.4% | viability, T/C [10]: 85.4% | viability, T/C [11]: 75.2% | viability, T/C [12]: 2.28% | viability, T/C [13]: 114% | viability, T/C [14]: 101% | viability, T/C [15]: 114% | viability, T/C [16]: 85.7% | viability, T/C [17]: 80.1% | viability, T/C [18]: 3.17% | viability, T/C [19]: 104% | viability, T/C [20]: 100% | viability, T/C [21]: 97.2% | viability, T/C [22]: 115% | viability, T/C [23]: 97.3% | viability, T/C [24]: 6.37% | viability, T/C [25]: 144% | viability, T/C [26]: 125% | viability, T/C [27]: 125% | viability, T/C [28]: 115% | viability, T/C [29]: 86.5% | viability, T/C [30]: 6.99% | viability, T/C [31]: 97% | viability, T/C [32]: 123% | viability, T/C [33]: 104% | viability, T/C [34]: 113% | viability, T/C [35]: 101% | viability, T/C [36]: 8.7% | viability, T/C [37]: 115% | viability, T/C [38]: 143% | viability, T/C [39]: 162% | viability, T/C [40]: 119% | viability, T/C [41]: 93.6% | viability, T/C [42]: 15.4%
